Data reported in patent publication US20140329863A1 (priority 2011, published 2014).

Columns and labels:
[1] = Toleration studies in mice; settings: 210 mg/kg/day for 14 days, mice
CYP2D6 = target: T1, CYP2D6 (Homo sapiens, UniProt P10635); assay: Cytochrome P450 phenotyping in human liver microsomes, CYP2D6 (quinidine); type: in vitro ADME; settings: HLM, 1 μM quinidine
T1 construct: tissue BD Biosciences; host or cells: pooled human liver microsomes
Source text: (§1) % Disappearance=[(TC-NADPH TC+NADPH)/TC-NADPH]×100
(§2) for which TC is the test compound.

CYP3A4 = target: T2, CYP3A4 (Homo sapiens, UniProt P08684); assay: Cytochrome P450 phenotyping in human liver microsomes, CYP3A4 (ketoconazole); type: in vitro ADME; settings: HLM, 1 μM ketoconazole
T2 construct: tissue BD Biosciences; host or cells: pooled human liver microsomes
Source text: as §1, §2

in vitro = settings: Sprague-Dawley (rat), beagle (dog), CD-1 (mouse), human, plasma

T1 sequence (P10635 whole entry): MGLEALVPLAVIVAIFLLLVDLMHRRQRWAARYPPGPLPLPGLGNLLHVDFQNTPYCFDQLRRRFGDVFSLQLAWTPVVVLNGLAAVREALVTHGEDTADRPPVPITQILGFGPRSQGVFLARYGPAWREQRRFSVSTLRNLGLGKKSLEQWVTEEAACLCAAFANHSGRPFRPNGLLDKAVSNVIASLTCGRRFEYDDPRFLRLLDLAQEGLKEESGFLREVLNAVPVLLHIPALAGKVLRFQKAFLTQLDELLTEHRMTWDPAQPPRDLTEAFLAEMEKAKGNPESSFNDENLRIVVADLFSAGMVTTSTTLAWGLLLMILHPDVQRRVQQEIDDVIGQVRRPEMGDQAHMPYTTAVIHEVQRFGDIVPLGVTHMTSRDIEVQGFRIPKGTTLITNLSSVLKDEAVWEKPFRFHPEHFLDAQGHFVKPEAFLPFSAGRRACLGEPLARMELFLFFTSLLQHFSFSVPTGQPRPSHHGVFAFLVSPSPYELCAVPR
T2 sequence (P08684 whole entry): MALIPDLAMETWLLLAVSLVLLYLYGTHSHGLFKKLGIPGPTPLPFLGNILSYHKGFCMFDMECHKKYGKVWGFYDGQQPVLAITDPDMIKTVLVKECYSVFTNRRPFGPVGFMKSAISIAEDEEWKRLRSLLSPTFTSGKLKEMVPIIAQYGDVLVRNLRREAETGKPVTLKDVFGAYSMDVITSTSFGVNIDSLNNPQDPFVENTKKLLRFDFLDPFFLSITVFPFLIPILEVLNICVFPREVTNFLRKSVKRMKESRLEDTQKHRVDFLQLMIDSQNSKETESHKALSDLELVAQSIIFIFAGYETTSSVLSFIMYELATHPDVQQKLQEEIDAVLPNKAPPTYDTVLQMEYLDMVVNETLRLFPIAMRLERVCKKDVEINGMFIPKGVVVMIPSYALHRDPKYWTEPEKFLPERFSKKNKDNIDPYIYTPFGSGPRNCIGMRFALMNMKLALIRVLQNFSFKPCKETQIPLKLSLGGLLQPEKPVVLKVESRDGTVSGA

Row | SMILES | Toleration [1] | involvement of CYP2D6 in metabolism (CYP2D6) | involvement of CYP3A4 in metabolism (CYP3A4) | fraction unbound (in vitro)
1 | Cc1cccc(Nc2nc(-c3ccc(-c4ccccc4)cc3)cs2)n1 [IND24, (4-Biphenyl-4-yl-thiazol-2-yl)-(6-methyl-pyridin-2-yl)-amine] | well tolerated | – | – | –
2 | Cc1ccnc(Nc2nc(-c3ccc(-c4ccccn4)s3)cs2)c1 [IND81, (4-Methyl-pyridin-2-yl)-[4-(5-pyridin-2-yl-thiophen-2-yl)-thiazol-2-yl]-amine] | – | most likely to be involved | most likely to be involved | 0.57
